Patent publication US10793557B2, “Sting agonist compounds” (Merck Sharp & Dohme Corp., priority 2018, dated 2020)

Columns and labels:
[1] = tested on: secretion of interferon-beta from THP1 cells; assay: IFN-β secretion in THP1 cell culture (5 h); type: cell-based; settings: Homo sapiens, THP-1, 5 h, compound at 30 μM, 30 uM cGAMP = 100%, read-out: % Effect at 30 μM relative to 2′3′-cGAMP
Experimental: The ability of compounds to stimulate the secretion of interferon-beta from THP1 cells was measured using a human IFN-β AlphaLISA kit (Perkin Elmer, Cat. No. AL265F). The basic protocol is as follows:
A Labcyte Echo 550 acoustic dispenser was used to transfer 120 nL of compound dissolved in DMSO into the wells of an empty, sterile 384-well microplate, (Corning, Cat. No. 3712). THP1 cells (American Type Culture Collection, Cat. No. TIB202) previously frozen in Recovery Medium (Life Technologies, Cat. No. 12648-010) were thawed and immediately diluted 10-fold into 37° C. assay medium (RPMI 1640+L-Glutamine & phenol red, Life Technologies, Cat. No. 11875-085; 0.5% heat inactivated fetal bovine serum, Sigma Aldrich, Cat. No. F4135; 1 mM Sodium Pyruvate, Life Technologies, Cat. No. 11360-070; 1× non-essential amino acids; Life Technologies, Cat. No. 11140-050). The cell viability and count was ascertained using a Beckman Coulter V-Cell XR cell counter. The cells suspension was centrifuged at 200×g for 5 min at RT. Cells were resuspended to a density of 0.8×10^6/mL in 37° C. assay medium. Subsequent liquid transfers were performed using either a Matrix electronic multichannel pipette or an Agilent Bravo Automated Liquid Handling Platform.
The assay was started by dispensing 40 μL of the previously prepared cell suspension into the wells of the plate containing compounds. After 5 h incubation at 37° C., 5% CO2 in a humidified atmosphere, the plate of cells and compounds was centrifuged at 200×g for 5 min at RT. From each well, 5 μL of supernatant was transferred into corresponding wells of a white 384-well plate (Perkin Elmer, Cat. No. 6005620). To these supernatant-containing wells was added 10 μL of 5× Anti-Analyte Acceptor beads (50 μg/mL of AlphaLISA HiBlock Buffer) and incubated for 30 min at RT while shaking on an orbital plate shaker. To each well was added 10 μL of 5× Biotinylated Antibody Anti-analyte (5 nM in AlphaLISA HiBlock Buffer) and incubated on an orbital plate shaker for 60 min at RT or overnight at 4° C. To each well was added 25 μL of 2× SA-Donor beads (80 μg/mL in AlphaLISA HiBlock Buffer) and incubated for 30-45 min at RT in the dark while shaking on an orbital plate shaker. The plate was then read on a Perkin Elmer Envision (λex=680 nm, […]). The percent effect of the AlphaLISA signal at each compound concentration was calculated based on 30 uM cGAMP positive controls and 0.3% DMSO negative controls. The plot of percent effect versus the log of compound concentration was fit with a 4-parameter concentration response equation to calculate EC50 values. The test compounds were tested at concentrations 30000, 10000, 3333, 1111, 370.4, 123.4, 41.2, 13.7, 4.6, and 1.5 nM with 0.3% residual DMSO. The control compound, cGAMP was tested at concentrations 100000, 33333, 11111, 3704, 1235, 412, 137, 46, and 15 nM with 0.3% residual DMSO.
Compounds of the disclosure were evaluated for IFN-β secretion in THP1 cell culture as described above. The following table tabulates the biological data for these compounds as percent activation relative to 2′3′-cGAMP at the 30 µM concentration.

[2] = target: T1, full-length WT STING (Homo sapiens, UniProt Q86WV6, H232R); assay: 3H-cGAMP filtration binding assay (WT STING); settings: for EC50: competition with tritiated cGAMP, WT STING membrane
T1 construct: AviTag (after gg linker) (C); HRV3C cleavage site (after gs linker) (C); HIS8 (C); made in house; host or cells: Trichoplusia ni (Hi-Five) insect cells infected with baculovirus (virus generated and amplified in Sf21 cells); used as a washed membrane preparation
T1 sequence (Q86WV6 with tags, fused parts or gaps H232R): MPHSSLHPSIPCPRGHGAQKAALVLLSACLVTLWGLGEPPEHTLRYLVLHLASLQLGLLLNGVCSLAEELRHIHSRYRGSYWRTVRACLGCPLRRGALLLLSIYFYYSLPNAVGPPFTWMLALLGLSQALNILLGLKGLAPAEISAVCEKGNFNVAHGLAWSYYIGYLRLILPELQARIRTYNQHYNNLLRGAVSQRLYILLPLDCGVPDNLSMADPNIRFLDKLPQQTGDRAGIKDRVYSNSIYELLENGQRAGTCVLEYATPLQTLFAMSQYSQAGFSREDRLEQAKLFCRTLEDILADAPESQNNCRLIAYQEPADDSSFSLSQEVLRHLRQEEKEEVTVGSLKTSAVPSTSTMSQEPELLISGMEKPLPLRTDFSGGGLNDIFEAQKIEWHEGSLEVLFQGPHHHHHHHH
Experimental: (§1) The ability of compounds to bind STING is quantified by their ability to compete with tritiated cGAMP ligand for human STING receptor membrane using a radioactive filter-binding assay. The binding assay employs STING receptor obtained from Trichoplusia ni cell membranes (T. ni; Expression Systems, cat #94-002F, www.expressionsystems.com) overexpressing full-length WT STING and tritiated cGAMP ligand.
The basic WT STING filtration assay protocol is as follows:
16 nM of [^3H] c-GAMP ligand was prepared by diluting into assay buffer, and 50 uL of this working stock was manually added to each well of the assay plate. After ligand addition, 2 uL of either titrated test compound, DMSO control (Sigma #276855), or cold cGAMP control was added to the appropriate wells using a BIOMEK FX. The serially titrated compound was prepared on a Hamilton STARPlus CORE in a 96-well plate (Greiner, #651201) using a 1:3 ten-point dose response format. Following compound addition, a 2.2 ug/ml working concentration of STING membrane (SEQ. ID. No. 3) was prepared by diluting concentrated membrane into assay buffer (1×PBS; Invitrogen # SH30028.02) and douncing 7× using a manual tissue homogenizer (Wheaton, #357546). 148 uL of this prepared membrane was then manually added to each well of a 96-well deep-well polypropylene plate (Fisher Scientific, #12-566-121). Compound, ligand, and membrane then incubated for 60 min at RT before the contents of each assay plate were filtered through a 96-well GF/B filter plate (PerkinElmer, #6005250) using a TOMTEC MACH III Cell Harvester equipped with 20 mM HEPES buffer (Fisher Scientific, # BP299500). The filter plates were then dried at 55° C. for 30 min using a pressurized VWR oven before 30 uL of ULTIMA GOLD F scintillate was added to each well. Tritium levels for each reaction well were then measured using a PerkinElmer TopCount plate reader.
(§2) After normalization to controls, the percent activity for each compound concentration was calculated by measuring the amount of remaining radioactivity. The plot of percent activity versus the log of compound concentration was fit with a 4-parameter dose response equation to calculate EC50 values.

[3] = target: T2, full-length HAQ STING (Homo sapiens, UniProt Q86WV6, G230A/H232R/R293Q/R71H); assay: 3H-cGAMP filtration binding assay (HAQ STING); settings: competition with tritiated cGAMP, HAQ STING membrane
T2 construct: AviTag (after GG linker) (C); HRV3C cleavage site (after GS linker) (C); HIS8 (C); made in house; host or cells: Trichoplusia ni (Hi-Five) insect cells infected with baculovirus (virus generated and amplified in Sf21 cells); used as a washed membrane preparation
T2 sequence (Q86WV6 with tags, fused parts or gaps R71H/G230A/H232R/R293Q): as the sequence (Q86WV6 with tags, fused parts or gaps H232R) above, with R71H, G230A, R293Q counted along it
Source text: The ability of compounds to bind STING is quantified by the ability to compete with tritiated cGAMP ligand for human STING receptor membrane using a radioactive filter-binding assay. The binding assay employs STING receptor obtained from Hi-Five cell membranes overexpressing full-length HAQ STING prepared in-house and tritiated cGAMP ligand also purified in-house.
as §1, with “HAQ” for “WT”
The basic HAQ STING filtration assay protocol is as follows:
The compounds were serially titrated by the Hamilton STARPlus CORE in a 96-well plate (Greiner, #651201) using a 1:3 ten-point dose response format. After compound preparation, a 2.2 ug/ml working concentration of STING membrane (SEQ. ID. No. 1) was prepared by diluting concentrated membrane into assay buffer (1×PBS; Invitrogen # SH30028.02) and douncing 7× using a manual tissue homogenizer (Wheaton, #357546). 148 uL of prepared membrane was then manually added to each well of a 96-well deep-well polypropylene plate (Fisher Scientific, #12-566-121). Following membrane addition, 2 uL of either titrated test compound, DMSO control (Sigma #276855), or cold cGAMP control was added to the appropriate wells using a BIOMEK FX. Compound and membrane then preincubated for 60 min at RT to allow compound binding to equilibrate. Following equilibration, 8 nM of [^3H]c-GAMP ligand was prepared by diluting into assay buffer, and 50 uL of this working stock was then manually added to each well of the assay plate. Plates were then incubated at RT for 60 min, and the contents of each assay plate were then filtered through a 96-well GF/B filter plate (PerkinElmer, #6005250) using a TOMTEC MACH III Cell Harvester equipped with 20 mM HEPES buffer (Fisher Scientific, # BP299500). The filter plates were then dried at 55° C. for 30 min using a pressurized oven before 30 uL of ULTIMA GOLD F scintillate was added to each well. Tritium levels for each reaction well were then measured using a PerkinElmer TopCount plate reader.
as §2

Compound	EC50 [2]	EC50 [3]	inhibition at 20 µM ([2]; at 20,000 nM compound)	activation at 30 µM [1]
COc1cc2sc(C(=O)C[C@H](C)C(=O)O)cc2cc1CCCCc1cc2cc(C(=O)C[C@H](C)C(=O)O)sc2cc1OC [Example 1, (2S,2′S)-4,4′-[butane-1,4-diylbis(6-methoxy-1-benzothiene-5,2-diyl)]bis(2-methyl-4-oxobutanoic acid)]	117 nM	6 nM	–	26%
COc1cc2sc(C(=O)C[C@H](C)C(=O)O)cc2cc1CCCc1cc2cc(C(=O)C[C@H](C)C(=O)O)sc2cc1OC [Example 2, (2S,2′S)-4,4′-[propane-1,3-diylbis(6-methoxy-1-benzothiene-5,2-diyl)]bis(2-methyl-4-oxobutanoic acid)]	14 nM	7 nM	–	192%
COc1cc2sc(C(=O)CCC(=O)O)cc2cc1CCCOc1nc2cc(C(=O)C[C@H](C)C(=O)O)sc2cc1OC [Example 3, (S)-4-(5-(3-(2-(3-carboxypropanoyl)-6-methoxybenzo[b]thiophen-5-yl)propoxy)-6-methoxythieno[3,2-b]pyridin-2-yl)-2-methyl-4-oxobutanoic acid]	273 nM	114 nM	–	151%
COc1cc2sc(C(=O)CCC(=O)O)cc2nc1OCCCc1ccc2sc(C(=O)CCC(=O)O)cc2c1 [Example 4, 4-(5-(3-((2-(3-carboxypropanoyl)-6-methoxythieno [3,2-b]pyridin-5-yl)oxy)propyl)benzo[b]thiophen-2-yl)-4-oxobutanoic acid]	33 nM	6 nM	–	93%
COc1cc2sc(C(=O)CCC(=O)O)cc2cc1CCCOc1cc2nc(C(=O)CCC(=O)O)sc2cc1OC [Example 5, 4-(5-(3-(2-(3-carboxypropanoyl)-6-methoxybenzo [b]thiophen-5-yl)propoxy)-6-methoxybenzo[d]thiazol-2-yl)-4-oxobutanoic acid]	381 nM	84 nM	–	96%
COc1cc2sc(C(=O)CCC(=O)O)cc2cc1OCCCc1ccc2sc(C(=O)CCC(=O)O)cc2c1 [Example 6, 4-(5-(3-((2-(3-carboxypropanoyl)-6-methoxybenzo [b]thiophen-5-yl)oxy)propyl)benzo[b]thiophen-2-yl)-4-oxobutanoic acid]	206 nM	53 nM	–	106%

Continued, in another order:

EC50 [2]	EC50 [3]	inhibition at 20 µM ([2]; at 20,000 nM compound)	Compound	activation at 30 µM [1]
219 nM	24 nM	–	COc1cc2sc(CCC(C)(C)C(=O)O)cc2c(F)c1OCCCOc1c(OC)cc2sc(C(=O)[C@@H]3CC[C@H]3C(=O)O)cc2c1F (relative stereo) [Example 141, trans-2-(5-(3-((2-(3-carboxy-3-methylbutyl)-4-fluoro-6-methoxybenzo[b]thiophen-5-yl)oxy)propoxy)-4-fluoro-6-methoxybenzo[b]thiophene-2-carbonyl)cyclobutane-1-carboxylic acid]	143%
628 nM	18 nM	–	COc1cc2sc(C(=O)C[C@H](C)C(=O)O)cc2c(F)c1OCCCOc1cc2sc(C(=O)[C@@H]3CC[C@H]3C(=O)O)cc2c(F)c1OC (single isomer, unassigned) [Example 96]	43%
–	1800 nM	32%	COc1cc2sc(C(=O)CCC(=O)O)cc2c(F)c1OCCCCCOc1c(OC)cc2sc(C(=O)[C@@H]3CC[C@H]3C(=O)O)cc2c1F (stereo in doubt) [Example 119, 2-(5-((5-((2-(3-carboxypropanoyl)-4-fluoro-6-methoxybenzo[b]thiophen-5-yl)oxy)pentyl)oxy)-4-fluoro-6-methoxybenzo[b]thiophene-2-carbonyl)cyclo-butanecarboxylic acid]	13%
71 nM	17 nM	–	COc1cc2sc(C(=O)CCC(=O)O)cc2cc1OCCc1nc2cc(C(=O)CCC(=O)O)sc2cc1OC [Example 7, 4-(5-(2-((2-(3-carboxypropanoyl)-6-methoxybenzo [b]thiophen-5-yl)oxy)ethyl)-6-methoxythieno[3,2-b]pyridin-2-yl)-4-oxobutanoic acid]	97%
